Entries after “also recorded” stand apart in the source; their conditions may differ. Residues, ends and D or L forms follow the SMILES beside them. *: point of attachment. Cbz = O=C(OCc1ccccc1)*
Tests used:
[1] = test system: Molm13 PPM1D-mutant and control single cell clones; assay: 72-hour cell viability analysis; format: cell-based, human; conditions: for viability of PPM1D-mutant cells versus control cells in the presence of chemotherapeutic agent: 72 hours, increasing concentrations
Description: FIG. 2B provides immunoblots of whole cell lysates from Molm13 control cells (control), PPM1D-mutant pooled clones and PPM1D frame-shift (fs) mutant single cell clones probed with anti-PPM1D and anti-Actin. […] FIG. 2D is a plot depicting viability assays in Molm13 PPM1D-mutant or control single cells clones that were treated with increasing concentrations of cyclophosphamide for 72 hours. FIG. 2E is a plot depicting viability assays in Molm13 PPM1D-mutant or control single cells clones that were treated with increasing concentrations of cisplatin for 72 hours. […] FIG. 2G is a plot depicting flow cytometric readout of competition experiment with 5% pooled Molm13 PPM1D-mutant cells and 95% pooled Molm13 control cells exposed to 350 nM Cyclophosphamide or vehicle for 24 days. FIG. 2H is a plot depicting flow cytometric readout of competition experiment with 5% pooled Molm13 PPM1D-mutant cells and 95% pooled Molm13 control cells exposed to 1 μM Cisplatin or vehicle for 24 days. […] PPM1D and control sgRNAs were identified through their fluorophores.
The line represents the locally weighted scatterplot smoothing (LOESS) of 0.1. […] FIG. 8B is a vector map of the degradation reporter vector, with different PPM1D cDNA constructs inserted. FIG. 8C is a graph showing EGFP/mCherry ratio for Molm13 cells with overexpression of wild type PPM1D, truncated PPM1D or the C-terminal end of PPM1D. FIG. 8D is a graph showing EGFP/mCherry ratio for Molm13 p53^−/− cells with overexpression of wild type PPM1D, truncated PPM1D or the C-terminal end of PPM1D. FIG. 8E is a graph showing EGFP/mCherry ratio in Molm13 cells before and after exposure to MG132 (10 μM, 6 hours), normalized to pre-treatment values. FIG. 8F is a plot showing cell viability analysis in Molm13 control cells (control), Molm13 PPM1D truncating mutant cells (PPM1D mutant) and Molm13 cells with overexpression of wild-type PPM1D (WT overexpression). […] For all experiments the following apply: *=p<0.05, **=p<0.01, ***=p<0.001,****=p<0.0001
(§1) 72 hour cell viability analysis in Molm13 PPM1D-mutant and control single cell clones after exposure to increasing doses of GSK2830371. FIG. 10F is a graph showing percent Annexin V positive cells in cells treated with PPM1D inhibitor or vehicle. Annexin V staining and flow cytometric analysis of Molm13 PPM1D-mutant and control single cell clones exposed to 3 μM of GSK2830371. *=p<0.05, **=p<0.01, ***=p<0.001
To study the role of PPM1D mutations in chemotherapy resistance, mutations in PPM1D were induced using the CRISPR-Cas9 system. […] Using sequence verified PPM1D mutant (fs) and empty vector control Molm13 cells, the effects of mutant and wild type PPM1D in the response to DNA damaging chemotherapy were analyzed. […] (FIG. 1C).
(§2) To study the sensitivity of PPM1D truncating mutations to chemotherapy exposure, frame-shift mutations were introduced in the PPM1D gene in Molm13 AML cells, which are TP53 wild-type, using CRISPR-Cas9.

[2] = test system: Molm13 PPM1D-mutant pooled cells and control pooled cells; assay: In vitro competition experiment, PPM1D-mutant cells mixed with control cells; format: cell-based, human; conditions: PPM1D mutant cells mixed with control cells
Description: FIG. 2B provides immunoblots of whole cell lysates from Molm13 control cells (control), PPM1D-mutant pooled clones and PPM1D frame-shift (fs) mutant single cell clones probed with anti-PPM1D and anti-Actin. […] FIG. 2D is a plot depicting viability assays in Molm13 PPM1D-mutant or control single cells clones that were treated with increasing concentrations of cyclophosphamide for 72 hours. FIG. 2E is a plot depicting viability assays in Molm13 PPM1D-mutant or control single cells clones that were treated with increasing concentrations of cisplatin for 72 hours. […] FIG. […] FIG. […] PPM1D and control sgRNAs were identified through their fluorophores.
as §1, §2

[3] = test system: PPM1D-mutant cells; assay: In vivo competition experiment in bone marrow chimeras treated with cytarabine; conditions: mice
Excerpt: FIG. 5 provides an experimental schema of an in vivo competition experiment. Bone marrow chimaeras were generated by transplanting Mx-Cre Cas9 cKit^+Cas9 cells transduced with a BFP-tagged sgRNA targeting exon 6 of PPM1D or a tRFP-tagged control sgRNA into lethally-irradiated syngeneic recipients in a 1:5 ratio.
PPM1D and control sgRNAs were identified through their fluorophores. […] […] PPM1D and control sgRNAs were identified through their fluorophores.
Whether PPM1D mutations confer resistance to chemotherapy in vivo was examined. In another experiment, bone marrow chimeras were generated using Mx-Cre Cas9 c-Kit^+ cells that were transduced with a BFP-tagged sgRNA targeting exon 6 of PPM1D or a tRFP-tagged control sgRNA and transplanted into lethally-irradiated syngeneic recipients in a 1:5 ratio (FIG. 5). Mice were treated with cytarabine or vehicle after hematopoietic reconstitution.

[4] = test system: Molm13 PPM1D-mutant and control single cell clones; assay: Annexin V staining and flow cytometric analysis; format: cell-based, human; conditions: 400 nM cytarabine, 24 hours
Excerpt: FIG. 9E is a chart depicting the consensus sequence of PPM1D based on substrate analysis of 43 substrate candidates of PPM1D. FIG. 9F depicts 43 potential PPM1D substrate sites on pSer/Thr residues on 25 proteins. […] Only localized sites were considered. Figure discloses SEQ ID NOS 4-20 and 20-31, respectively, in order of appearance. FIG. 9G depicts a schema illustrating the components of the DNA-damage response pathway that are targeted by PPM1D in leukemia cells, based on the results from the phosphoproteomics analysis. Phospho-targets of PPM1D identified by mass spectrometry (FDR<0.1) are shown in bold. Predicted PPM1D target sites that were based on the identified consensus sequence with a glutamine at +1 and >2 acidic residues (p=3.595e-13, Fisher's exact test) are shown in italics.
as §1

[5] = test system: Molm13 PPM1D-mutant and control single cell clones; assay: BrdU staining and flow cytometric analysis (cell cycle); format: cell-based, human; conditions: 100 nM cytarabine, 24 hours
[6] = test system: PPM1D; assay: PPM1D degradation reporter (EGFP/mCherry ratio); format: cell-based, human; conditions: Molm13 cells, MG132 10 μM, 6 hours
Excerpt: The line represents the locally weighted scatterplot smoothing (LOESS) of 0.1. Overlaid are frame-shift and non-sense mutations (black bars) identified in the blood cells of 29,562 persons as described in FIG. 2A. FIG. 8B is a vector map of the degradation reporter vector, with different PPM1D cDNA constructs inserted. FIG. 8C is a graph showing EGFP/mCherry ratio for Molm13 cells with overexpression of wild type PPM1D, truncated PPM1D or the C-terminal end of PPM1D. FIG. 8D is a graph showing EGFP/mCherry ratio for Molm13 p53^−/− cells with overexpression of wild type PPM1D, truncated PPM1D or the C-terminal end of PPM1D. FIG. 8E is a graph showing EGFP/mCherry ratio in Molm13 cells before and after exposure to MG132 (10 μM, 6 hours), normalized to pre-treatment values. […]
A reporter vector was generated in which wild-type PPM1D cDNA (wt), PPM1D truncation mutants, or the last 80 amino-acids (C-terminal region) were cloned in frame with GFP, so the level of expression of the PPM1D sequences could be monitored by GFP expression (FIG. 8B, Table 1).
The fluorescence level of mCherry, which is expressed following an IRES sequence, provided an internal control for vector expression in each cell. […]

SMILES: O=C1/C(=C/c2cccs2)CC/C1=C\c1cccs1 [CCT007093]
- sensitivity of PPM1D-mutant cells versus control cells to single agent PPM1D inhibitor, cell viability ([1]; 72 hour, increasing doses): increased sensitivity to treatment with the PPM1D inhibitor CCT007093 in comparison to wild-type (wt) control cells; also recorded: increased sensitivity to PPM1D inhibition with either compound in comparison to wild type control cells

SMILES: N.N.[Cl][Pt][Cl] [Cisplatin]
- viability of PPM1D-mutant cells versus control cells in the presence of chemotherapeutic agent [1]: increased viability at 72 hours

SMILES: O=P1(N(CCCl)CCCl)NCCCO1 (stereo not drawn) [Cyclophosphamide]
- competitive advantage of PPM1D-mutant cells under chemotherapy [2]: PPM1D mutant cells had a competitive advantage
- viability of PPM1D-mutant cells versus control cells in the presence of chemotherapeutic agent [1]: increased viability at 72 hours

SMILES: Nc1ccn([C@@H]2O[C@H](CO)[C@@H](O)[C@@H]2O)c(=O)n1 [Cytarabine]
- competitive advantage of PPM1D-mutant cells under chemotherapy [2]: PPM1D mutant cells had a competitive advantage
- PPM1D-mutant cells in the peripheral blood after cytarabine treatment ([3]; 1:5 chimeras, several rounds of cytarabine): significant, selective increase of PPM1D-mutant cells in the peripheral blood
- PPM1D-mutant hematopoietic stem and progenitor cells in the bone marrow ([3]; 12 weeks, 3 rounds of cytarabine): also increased
- apoptosis of PPM1D-mutant versus control cells after chemotherapy, Annexin V staining [4]: decreased apoptosis
- progression to G2/M phase of PPM1D-mutant versus control cells after chemotherapy [5]: increased progression to G2/M phase
- viability of PPM1D-mutant cells versus control cells in the presence of chemotherapeutic agent [1]: increased resistance to Cytarabine in PPM1D mutant cells compared to empty vector controls; also recorded: resistance to treatment with Cytarabine
- viability of PPM1D-mutant cells versus control cells in the presence of chemotherapeutic agent ([1]; listed as cytarabine): increased viability at 72 hours

SMILES: CC(C)C[C@@H](C=O)NC(=O)[C@H](CC(C)C)NC(=O)[C@H](CC(C)C)NC(=O)OCc1ccccc1 [MG132] (Cbz-Leu-Leu-Leu-aldehyde)
- degradation of PPM1D constructs (EGFP/mCherry ratio) [6]: decreased degradation of wild-type and C-terminal PPM1D, but not of the truncating mutants

Reference: patent publication US12201620B2, “Compositions and methods for treating chemotherapy resistant cancer” (The Brigham And Women's Hospital, Inc., priority 2016, dated 2025)
